Experimental findings from patent publication US20240083908A1, “TETRAHYDROTHIENOPYRIMIDINESULFONAMIDE COMPOUNDS” (priority 2020, published 2024) are described below.

In one experiment the target is human recombinant PARG (Homo sapiens (Human), UniProt Q86W56). Description: PARG Activity Assay. The experiment is classed as biochemical. Conditions: recombinant human PARG 0.0185 nM, 1 hour pre-incubation, poly (ADP-ribose) substrate-coated plate, Abs 450. The method, then: In order to evaluate the PARG inhibitory activity of the present compound, the inhibitory activity of each test compound against human recombinant PARG was measured. The specific procedure is described below.
Test compound was dissolved in dimethyl sulfoxide and prepared a 10 mM stock solution.
PARG Activity Assay was performed in Streptavidin-coated 96-well plates. […] The substrate solution was added to the 96-well plate at the volume of 200 micro liter per well and incubated for 3 hours at room temperature. After the incubation, the substrate solution was discarded and assay plate was washed 4 times with 220 micro liter of PBS containing 0.1% Tween20 (PBST). […] The diluted enzyme solution was pre-incubated with compounds for 1 hour at room temperature in a 96-well plate and transferred 100 micro liter per well to the poly (ADP-ribose) substrate-coated assay plate. The plate was incubated for 1 hour at 25° C. and then washed 4 times with 220 micro liters of PBST. For the detection of non-digested poly (ADP-ribose) polymer on the plate, mouse anti-poly (ADP-ribose) antibody diluted with 0.2% BSA containing PBS was added 100 micro liters per well and incubated 1 hour at room temperature. Plate was washed 4 times with TBST and 100 micro liter of HRP-labeled anti-mouse Ig antibody was added to the wells. Plate was incubated for 30 minutes at room temperature and then washed 4 times with PBST. For the detection 100 micro liters of TMB substrate solution was added to the wells. After sufficient color development, reaction was stopped by addition of 50 micro liter of 0.2 M […]. The 450 nm absorbance (Abs 450) of each well was read with a micro plate reader. The assay was performed by duplicated and average of 2 independent assays were used for the determination of PARG inhibitor y activity.
Wells treated with dimethyl sulfoxide instead of test compound solution were designated as a Negative Control of assay
Wells treated with 0.2% BSA containing PBS instead of recombinant human PARG protein and with dimethyl sulfoxide instead of test compound solution were designated as a Positive Control of assay.
The PARG Inhibitory Activity (%) was determined by the following formulation.
PARG Inhibitory Activity (%)=[(AbsX−AbsA)/(AbsB−AbsA)]×100
(wherein, • AbsA is absorbance (Abs 450) of Negative Control wells • AbsB is absorbance (Abs 450) of Positive Control wells • AbsX is absorbance (Abs 450) of wells treated with test compound.)
In Table, Ex indicates an Example number shown below.

In the next experiment the test system is Kuramochi cells. Description: Synthetic Lethality Assay of Cancer Cell. Format: cell-based. The settings on record: Homo sapiens; growth inhibition of Kuramochi cells in the presence of methyl methanesulfonate (MMS), 96 hours, CellTiter-Glo.

Sequence of human recombinant PARG (Q86W56 whole entry): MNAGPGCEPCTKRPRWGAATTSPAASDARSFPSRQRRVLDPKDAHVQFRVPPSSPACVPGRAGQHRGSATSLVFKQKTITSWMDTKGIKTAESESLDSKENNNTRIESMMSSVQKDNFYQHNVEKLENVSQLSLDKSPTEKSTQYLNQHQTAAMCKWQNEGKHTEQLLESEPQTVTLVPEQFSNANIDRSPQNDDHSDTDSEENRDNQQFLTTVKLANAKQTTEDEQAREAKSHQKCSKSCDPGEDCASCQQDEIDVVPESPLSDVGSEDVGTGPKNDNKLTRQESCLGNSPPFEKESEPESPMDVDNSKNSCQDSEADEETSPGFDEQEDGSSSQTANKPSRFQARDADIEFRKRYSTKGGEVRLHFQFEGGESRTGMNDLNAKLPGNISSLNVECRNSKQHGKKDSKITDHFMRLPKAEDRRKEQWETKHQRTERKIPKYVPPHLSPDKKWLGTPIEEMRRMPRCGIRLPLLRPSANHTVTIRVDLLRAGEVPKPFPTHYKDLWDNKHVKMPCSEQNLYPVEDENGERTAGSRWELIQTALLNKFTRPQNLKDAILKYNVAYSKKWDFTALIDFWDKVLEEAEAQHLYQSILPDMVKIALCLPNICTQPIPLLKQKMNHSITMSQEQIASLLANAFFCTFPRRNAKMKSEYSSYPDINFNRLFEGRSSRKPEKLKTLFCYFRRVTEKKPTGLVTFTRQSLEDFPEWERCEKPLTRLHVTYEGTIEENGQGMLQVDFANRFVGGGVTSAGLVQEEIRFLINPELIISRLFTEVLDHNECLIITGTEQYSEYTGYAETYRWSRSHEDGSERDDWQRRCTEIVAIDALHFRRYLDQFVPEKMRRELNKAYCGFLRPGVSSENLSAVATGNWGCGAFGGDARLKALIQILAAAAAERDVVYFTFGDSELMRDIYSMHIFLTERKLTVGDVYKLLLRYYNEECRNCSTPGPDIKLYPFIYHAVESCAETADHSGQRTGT
Experimental for Kuramochi cells: In order to evaluate the cancer cell growth inhibitory effect of the present compound, the inhibitory effect of the compound on the growth of a human ovarian cancer cell line, Kuramochi cells, was examined in the presence of methyl methanesulfonate (MMS) which is used as a DNA methylating agent.
Test compound was dissolved in dimethyl sulfoxide and prepared a 10 mM compound solution. The compound solution was then further serially diluted with dimethyl sulfoxide to prepare a concentration of 400 times test compound solution from 6 mM to 1 μM.
Kuramochi cells were purchased from the JCRB cell bank and cultured at 37° C. in the presence of 5% of CO2 using the complete medium described above. […]
Cell viability after 96 hours was measured by using CellTiter-Glo (registered trademark) Luminescent Cell Viability Assay (manufactured by Promega Corporation) according to the recommended usage.
The luminescence intensity was measured by using a luminescence detection plate reader (Envision, manufactured by PerkinElmer Inc.). The cell viability of each well was calculated as a relative value (%) of the luminescence intensity of each well to which each test compound with each concentration was added in a case where the luminescence intensity of a well to which dimethyl sulfoxide was added instead of the test compound was defined as 100%. […]

Consider `Cn1cc(Cn2c(=O)c3cc(S(=O)(=O)NC4(C)CC4)sc3n(Cc3ccc4[nH]c(CO)cc4c3)c2=O)cn1` [Ex 116], for which the IC50 at human recombinant PARG worked out at 15 nM.
For the compound `Cn1cc(Cn2c(=O)c3cc(S(=O)(=O)NC4(C)CC4)sc3n(Cc3cncc(CO)c3)c2=O)cn1` [Ex 117], the concentration for half-maximal inhibition (IC50) at human recombinant PARG was 41 nM.
As for `CN1CCc2ccc(Cn3c(=O)n(Cc4cnn(C)c4)c(=O)c4cc(S(=O)(=O)NC5(C)CC5)sc43)cc2C1=O` [Ex 118], the IC50 on human recombinant PARG amounted to 120 nM.
Take `Cn1cc(Cn2c(=O)c3cc(S(=O)(=O)NC4(C)CC4)sc3n(CC34CC(F)(C3)C4)c2=O)cn1` [Ex 119]: the IC50 on human recombinant PARG was 240 nM.
On the same count and under the same terms, to `Cn1cc(Cn2c(=O)c3cc(S(=O)(=O)NC4(C)CC4)sc3n(CCC3(C)COC3)c2=O)cn1` [Ex 120] belongs 120 nM; to `Cn1cc(Cn2c(=O)c3cc(S(=O)(=O)NC4(C)CC4)sc3n(Cc3ccc(F)c(OCCO)c3)c2=O)cn1` [Ex 122], 17 nM.
Same read-out and setting: under `COc1c(F)cc(Cn2c(=O)n(Cc3cnn(C)c3)c(=O)c3cc(S(=O)(=O)NC4(C)CC4)sc32)cc1F` [Ex 123] stands 29 nM; under `CNc1cc(Cn2c(=O)n(Cc3cnn(C)c3)c(=O)c3cc(S(=O)(=O)NC4(C)CC4)sc32)c(F)cc1F` [Ex 124], 73 nM; under `CNc1c(F)cc(Cn2c(=O)n(Cc3cnn(C)c3)c(=O)c3cc(S(=O)(=O)NC4(C)CC4)sc32)cc1F` [Ex 125], 20 nM.
For the compound `COC(=O)c1cc(Cn2c(=O)n(Cc3cnn(C)c3)c(=O)c3cc(S(=O)(=O)NC4(C)CC4)sc32)ccc1F` [Ex 126], the IC50 at human recombinant PARG was 45 nM.
`Cn1cc(Cn2c(=O)c3cc(S(=O)(=O)NC4(C)CC4)sc3n(Cc3ccc(F)c(C(=O)N4CCN(C(=O)C5CC5)CC4)c3)c2=O)cn1` [Ex 127]: the IC50 on human recombinant PARG worked out at 320 nM.
Same read-out and setting: to `Cn1cc(Cn2c(=O)c3cc(S(=O)(=O)NC4(C)CC4)sc3n(Cc3ccc(Oc4ccc(F)cc4)nc3)c2=O)cn1` [Ex 128] belongs 130 nM.
Regarding `Cn1cc(Cn2c(=O)c3cc(S(=O)(=O)NC4(C)CC4)sc3n(Cc3nc4c(s3)CCCC4)c2=O)cn1` [Ex 129], at human recombinant PARG, the IC50 came out at 46 nM.
On to `Cn1cc(Cn2c(=O)c3cc(S(=O)(=O)NC4(C)CC4)sc3n(Cc3ccc4c(c3)CC(=O)N4)c2=O)cn1` [Ex 130, 3-((1-Methyl-1H-pyrazol-4-yl)methyl)-N-(1-methylcyclopropyl)-2,4-dioxo-1-((2-oxoindolin-5-yl)methyl)-1,2,3,4-tetrahydrothieno[2,3-d]pyrimidine-6-sulfonamide], for which, in the experiment on Kuramochi cells, the IC50 turned out to be 11700 nM.
For the compound `Cn1cc(Cn2c(=O)c3cc(S(=O)(=O)NC4(C)CC4)sc3n(Cc3ccc4c(c3)NC(=O)C4)c2=O)cn1` [Ex 131], the IC50 at human recombinant PARG was 6.3 nM.
`Cn1cc(Cn2c(=O)c3cc(S(=O)(=O)NC4(C)CC4)sc3n(CCc3ccccc3)c2=O)cn1` [Ex 132]: at human recombinant PARG, the IC50 amounted to 660 nM.
As to `COc1c(C)cnc(Cn2c(=O)n(Cc3cnn(C)c3)c(=O)c3cc(S(=O)(=O)NC4(C)CC4)sc32)c1C` [Ex 133], the IC50 at human recombinant PARG came out at 1180 nM.
With `Cc1c[nH]c(Cn2c(=O)n(Cc3cnn(C)c3)c(=O)c3cc(S(=O)(=O)NC4(C)CC4)sc32)c(C)c1=O` [Ex 134], at human recombinant PARG, the IC50 stood at 6040 nM.
Take `Cc1cc(Cn2c(=O)n(Cc3cnn(C)c3)c(=O)c3cc(S(=O)(=O)NC4(C)CC4)sc32)ccc1F` [Ex 135]: the IC50 on human recombinant PARG came out at 37 nM.
